Experimental data taken from publication PMC10095932 (Molecules, 2023).
“Also recorded” adds a separate entry of the source. Like-named read-outs stand apart in the source and are kept apart here. Where a SMILES comes first, the peptide text is derived from it. Bridges are numbered along the chain shown (N, C = ends).

Tests used:
[1] = cited from earlier work
Description: In humans, the NP system consists primarily of three main peptides, A-type or atrial natriuretic peptide (ANP), B-type or brain natriuretic peptide (BNP), and C-type natriuretic peptide (CNP). Distinct variations in the expression levels of each NP correlates strongly with normal physiological and disease conditions. Due to their importance in cardio-renal diseases these peptides have been extensively studied. Structurally, the NP family is characterized by a 17-residue ring structure with a highly conserved internal sequence and variable N- and C-terminal regions. W ...

rat NPR-A = biological target: T1, rat NPR-A (Rattus norvegicus, UniProt P18910); experiment: cGMP ALPHAscreen, cGMP production in PC12 cells; format: cell-based; conditions: PC12 cells, cGMP ALPHAscreen
T1 construct: endogenous in cells; host or cells: rat PC12 cells
T1 sequence (P18910 29-1057): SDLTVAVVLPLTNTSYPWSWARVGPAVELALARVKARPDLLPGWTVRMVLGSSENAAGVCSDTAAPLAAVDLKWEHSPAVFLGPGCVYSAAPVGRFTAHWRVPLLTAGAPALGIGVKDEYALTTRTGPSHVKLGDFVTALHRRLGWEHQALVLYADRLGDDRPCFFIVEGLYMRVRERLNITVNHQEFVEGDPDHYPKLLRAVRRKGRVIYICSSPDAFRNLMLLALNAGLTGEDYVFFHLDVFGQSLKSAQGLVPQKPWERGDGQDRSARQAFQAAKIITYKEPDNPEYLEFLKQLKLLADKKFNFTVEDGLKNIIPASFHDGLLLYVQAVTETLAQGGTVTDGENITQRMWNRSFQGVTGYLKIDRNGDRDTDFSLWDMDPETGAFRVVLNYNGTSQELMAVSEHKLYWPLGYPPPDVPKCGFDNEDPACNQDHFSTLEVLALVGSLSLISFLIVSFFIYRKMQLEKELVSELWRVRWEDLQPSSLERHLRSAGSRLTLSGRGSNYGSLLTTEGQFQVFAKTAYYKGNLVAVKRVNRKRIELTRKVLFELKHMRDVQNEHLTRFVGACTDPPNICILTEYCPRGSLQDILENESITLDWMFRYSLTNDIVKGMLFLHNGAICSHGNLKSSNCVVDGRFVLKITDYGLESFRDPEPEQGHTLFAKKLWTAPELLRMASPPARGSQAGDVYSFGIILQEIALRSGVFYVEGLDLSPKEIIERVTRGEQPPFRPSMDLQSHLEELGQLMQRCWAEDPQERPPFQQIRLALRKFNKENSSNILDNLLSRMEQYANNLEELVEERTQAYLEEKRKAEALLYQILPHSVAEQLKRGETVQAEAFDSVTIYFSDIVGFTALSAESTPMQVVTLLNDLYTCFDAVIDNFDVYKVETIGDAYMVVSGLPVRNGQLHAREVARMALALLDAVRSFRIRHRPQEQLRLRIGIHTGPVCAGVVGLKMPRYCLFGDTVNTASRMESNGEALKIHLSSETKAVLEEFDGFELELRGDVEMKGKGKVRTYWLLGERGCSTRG
Description: NP activity can be determined by the effectiveness of the peptide to elicit cGMP production through NPR-A. The cGMP ALPHAscreen evaluates the ability of peptides to stimulate cGMP production in cells through a non-radioactive, homogenous, proximity assay which encompasses […]. […] In order to evaluate the potency of TNPa-e at rNPR-A, TNPa-e were evaluated using the cGMP ALPHAscreen in rat PC12 cells.
(§1) Cells were cultured at 5% CO2 and 37 °C. HEK 293 cells were cultured in high glucose DMEM (Gibco, Carlsbad, CA, USA) supplemented with 10% FBS, and 1% penicillin/streptomycin. HEK 293 cells were seeded in media lacking penicillin/streptomycin 24 to 48 h pre-transfection. PC12 cells were cultured in high glucose DMEM (Gibco) supplemented with 10% FBS and 1% penicillin/streptomycin.
(§2) The cGMP ALPHAscreen was performed using the ALPHAscreen Protein A detection kit and the biotinylated cGMP supplement (Perkin Elmer, Waltham, MA, USA) with rabbit anti-cGMP polyclonal antibody (Biovision, Mountain View, CA, USA). Cells were detached from the flask and the resulting pellet was resuspended in stimulation buffer (HBSS supplemented with 0.1% w/v BSA and 1 mM IBMX at 37 °C). Cells were added to a white 384-well Optiplate (Perkin Elmer, Waltham, USA) to 30,000 cells per well for HEK 293 cells and 10,000 cells per well for PC12 cells. Cells were incubated with different concentrations of test peptides (concentration range of 1 × 10^−5 to 1 × 10^−11 M in stimulation buffer) at 37 °C for 30 min. Cells were lysed with lysis buffer (1 M HEPES, 0.3% Tween-20, 1% BSA in H2O, pH 7.4). Then 5 μL acceptor-bead mix was added to each well under subdued lighting conditions, followed by 5 μL of donor-bead mix. Plates were incubated for ~12 h, slowly shaking at room temperature. After incubation, the ALPHAscreen signal was measured using an EnVision plate reader (Perkin Elmer). The standard curve consisted of cGMP in a concentration range of 1 × 10^−6 to 1 × 10^−12 M. All data points were acquired in triplicate and were analyzed using GraphPad Prism 5.0 software (GraphPad Software, Inc., San Diego, CA, USA).

human NPR-A = biological target: T2, human NPR-A (Homo sapiens, UniProt P16066); experiment: cGMP ALPHAscreen, cGMP production in HEK 293 cells transiently overexpressing hNPR-A; format: cell-based; conditions: HEK 293 cells overexpressing hNPR-A
T2 construct: expressed in transfected cells; host or cells: HEK 293 cells, transient, Lipofectamine 2000
T2 sequence (P16066 33-1061): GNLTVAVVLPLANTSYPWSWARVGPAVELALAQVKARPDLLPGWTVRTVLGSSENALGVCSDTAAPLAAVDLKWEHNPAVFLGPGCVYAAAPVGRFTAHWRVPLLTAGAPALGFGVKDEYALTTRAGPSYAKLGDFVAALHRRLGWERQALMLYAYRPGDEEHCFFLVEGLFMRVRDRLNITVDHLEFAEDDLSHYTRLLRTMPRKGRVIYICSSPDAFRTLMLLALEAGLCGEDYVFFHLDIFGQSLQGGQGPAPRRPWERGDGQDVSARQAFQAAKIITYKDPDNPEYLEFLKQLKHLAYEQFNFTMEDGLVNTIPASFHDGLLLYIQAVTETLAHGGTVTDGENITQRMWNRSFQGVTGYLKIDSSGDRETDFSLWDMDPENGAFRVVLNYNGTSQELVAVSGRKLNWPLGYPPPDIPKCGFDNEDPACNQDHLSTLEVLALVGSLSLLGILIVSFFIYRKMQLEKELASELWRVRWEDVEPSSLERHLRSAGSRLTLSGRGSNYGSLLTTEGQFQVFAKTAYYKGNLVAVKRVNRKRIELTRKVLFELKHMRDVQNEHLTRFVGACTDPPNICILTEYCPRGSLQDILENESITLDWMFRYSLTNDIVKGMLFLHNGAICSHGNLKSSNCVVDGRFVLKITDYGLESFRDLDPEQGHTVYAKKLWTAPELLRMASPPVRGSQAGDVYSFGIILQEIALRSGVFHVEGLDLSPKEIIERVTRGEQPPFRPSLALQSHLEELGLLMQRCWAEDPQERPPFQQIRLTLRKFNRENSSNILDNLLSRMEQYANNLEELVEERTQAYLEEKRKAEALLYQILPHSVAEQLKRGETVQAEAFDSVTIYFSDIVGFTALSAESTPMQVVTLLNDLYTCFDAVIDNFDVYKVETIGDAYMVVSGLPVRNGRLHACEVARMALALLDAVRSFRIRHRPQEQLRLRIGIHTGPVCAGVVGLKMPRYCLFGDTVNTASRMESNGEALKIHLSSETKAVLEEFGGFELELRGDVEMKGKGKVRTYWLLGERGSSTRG
Description: as §1
HEK 293 cells were transfected using the lipofectamine 2000 transfection protocol (Invitrogen). Cells (95% confluence) were transfected with 45% pcDNA3.1/hNPR-A, 45% pcDNA3.1, and 10% pEGFP-NI to the optimal DNA concentration specified in the protocol. The co-transfection with pEGFP-NI plasmid allowed the determination of the transfection efficiency. This was assessed by the estimation of the number of GFP-expressing cells using an Olympus IX70 inverted fluorescence microscope. Transfected cells were used for assay purposes within 24 h.
as §2

[2] = system: Neutral endopeptidase 24.11 (NEP); experiment: 500 ng NEP (activity 400 pmol min^−1 μg^−1) in 100 mM Tris.HCl and 150 mM NaCl (pH 7.4); conditions: 37 °C, up to 24 h

## CC[C@H](C)[C@@H]1NC(=O)[C@H](CCCNC(=N)N)NC(=O)[C@H](CC(=O)O)NC(=O)[C@H](CCSC)NC(=O)[C@H](CCCCN)NC(=O)[C@H](CCCNC(=N)N)NC(=O)CNC(=O)[C@H](Cc2ccccc2)NC(=O)[C@@H](NC(=O)CNC(=O)[C@H](CO)NC(=O)CNC(=O)[C@H](CCC(N)=O)NC(=O)[C@@H](NC(=O)[C@H](CCSC)NC(=O)[C@H](CCCCN)NC(=O)[C@@H]2CCCN2C(=O)[C@@H](N)CO)C(C)C)CSSC[C@@H](C(=O)N[C@@H](CCCCN)C(=O)N[C@H](C(=O)N[C@@H](CC(C)C)C(=O)N[C@@H](CCCN=C(N)N)C(=O)N[C@@H](CCCN=C(N)N)C(=O)N[C@@H](Cc2cnc[nH]2)C(=O)O)C(C)C)NC(=O)CNC(=O)[C@H](CC(C)C)NC(=O)CNC(=O)[C@H](CO)NC(=O)[C@H](CO)NC(=O)[C@H](CO)NC(=O)[C@H](CO)NC1=O [hBNP]
[1]
  half-life in plasma: 22 min

## CC[C@H](C)[C@@H]1NC(=O)[C@H](CCCNC(=N)N)NC(=O)[C@H](CC(=O)O)NC(=O)[C@H](CCSC)NC(=O)[C@H](CCCNC(=N)N)NC(=O)CNC(=O)CNC(=O)[C@H](Cc2ccccc2)NC(=O)[C@@H](NC(=O)[C@H](CO)NC(=O)[C@H](CO)NC(=O)[C@H](CCCNC(=N)N)NC(=O)[C@H](CCCNC(=N)N)NC(=O)[C@H](CC(C)C)NC(=O)[C@@H](N)CO)CSSC[C@@H](C(=O)N[C@@H](CC(N)=O)C(=O)N[C@@H](CO)C(=O)N[C@@H](Cc2ccccc2)C(=O)N[C@@H](CCCNC(=N)N)C(=O)N[C@@H](Cc2ccc(O)cc2)C(=O)O)NC(=O)CNC(=O)[C@H](CC(C)C)NC(=O)CNC(=O)[C@H](CO)NC(=O)[C@H](CCC(N)=O)NC(=O)[C@H](C)NC(=O)CNC1=O [hANP, human atrial natriuretic peptide]
[1]
  half-life in plasma: 3 min

## CC[C@H](C)[C@@H]1NC(=O)[C@H](Cc2c[nH]cn2)NC(=O)[C@H](CC(=O)O)NC(=O)[C@H](CC(C)C)NC(=O)[C@@H]2CCCN2C(=O)[C@H](CC(C)C)NC(=O)CNC(=O)[C@H](Cc2ccccc2)NC(=O)[C@@H](NC(=O)CNC(=O)[C@H](CC(=O)O)NC(=O)CNC(=O)[C@@H](NC(=O)[C@H](CCCCN)NC(=O)[C@@H]2CCCN2C(=O)[C@H](CC(=O)O)NC(=O)[C@@H](N)CO)[C@@H](C)CC)CSSC[C@@H](C(=O)N[C@@H](CC(N)=O)C(=O)N[C@@H](CCCNC(=N)N)C(=O)N2CCC[C@H]2C(=O)N[C@H](C(=O)N[C@@H](CCC(N)=O)C(=O)N[C@@H](CC(N)=O)C(=O)N[C@@H](CCCNC(=N)N)C(=O)N2CCC[C@H]2C(=O)N[C@@H](CCCCN)C(=O)N[C@@H](CCCCN)C(=O)O)C(C)C)NC(=O)CNC(=O)[C@H](CC(C)C)NC(=O)CNC(=O)[C@H](CO)NC(=O)[C@H](C(C)C)NC(=O)[C@H](CO)NC(=O)CNC1=O [TNPb] (H-SDPKIGDGCFGLPLDHIGSVSGLGCNRPVQNRPKK-OH; disulfide 9-25)
Rat NPR-A; 30 min at 37 °C, three to five separate experiments in triplicate, read-out: rNPR-A EC50 (95% CI), potency to stimulate cGMP production
  EC50: 1200 nM
Rat NPR-A; read-out: EC50 at rNPR-A
  EC50: > 1000 nM
Human NPR-A; HEK293, read-out: cGMP production, % of the maximum response (compared with DNP, hANP, hBNP), at 10 μM
  Emax at 10 µM: ~30%
Human NPR-A; 30 min at 37 °C, cGMP ALPHAscreen, three separate experiments in triplicate, read-out: hNPR-A EC50 (95% CI), potency to stimulate cGMP production
  EC50: > 10 µM

## SDSKIGNGCFGFPLDRIGSVSGLGCNRIMQNPPKKFSGE
[2]
  cleaved bond: Lys35-Phe36, major, after 24 h; also recorded: Cys9-Phe10, major, after 24 h; also recorded: Arg27-Ile28, major, after 24 h
